Results from publication PMC6838683, “Discovery of Human Signaling Systems: Pairing Peptides to G Protein-Coupled Receptors” (Cell, 2019).
Positions of bridges follow the written chain, without caps; N, C: chain ends. Residues, ends and D or L forms follow the SMILES beside them.

Experiments:
GPR68 [1] = molecular target: T1, GPR68 (Homo sapiens, UniProt Q15743); experiment: Real-time receptor internalization (TR-FRET), concentration-response; type: cell-based; set-up: hIL-2Ra signal peptide (N); expressed in transfected cells; details: GPR68; real-time internalization; mean, SEM and n (3)
Procedure, shortened: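 Doxycycline-induced SNAP-tagged receptor cells had surface receptors labelled with Lumi4-Tb and fluorescein-O-acetic acid added. TR-FRET internalization after peptide addition was recorded for 60 min at 37°C (ex 340, em 520/615 nm). Area under the curve, normalized to plate average, gave concentration-response curves.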
Target sequence in this assay (Q15743 2-365 limits assumed): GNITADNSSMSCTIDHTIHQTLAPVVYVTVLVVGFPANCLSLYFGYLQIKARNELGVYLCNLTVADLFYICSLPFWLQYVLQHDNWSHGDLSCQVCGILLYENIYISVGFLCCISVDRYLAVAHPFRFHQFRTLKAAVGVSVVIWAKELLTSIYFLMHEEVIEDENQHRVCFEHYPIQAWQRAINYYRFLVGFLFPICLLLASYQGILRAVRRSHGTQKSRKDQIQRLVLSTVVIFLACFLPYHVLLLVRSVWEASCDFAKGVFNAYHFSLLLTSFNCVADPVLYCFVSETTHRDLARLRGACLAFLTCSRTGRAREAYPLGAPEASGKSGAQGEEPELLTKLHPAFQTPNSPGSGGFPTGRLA

HA-OGR1 (GPR68) = molecular target: T2, HA-OGR1 (GPR68) (Homo sapiens, UniProt Q15743); experiment: Ca2+ mobilization assay (Fluo-4); type: cell-based; details: GPR68, calcium mobilization, mean, SEM and n (3-5) in separate columns
T2 construct: HA; expressed in transfected cells
T2 sequence (Q15743 whole entry): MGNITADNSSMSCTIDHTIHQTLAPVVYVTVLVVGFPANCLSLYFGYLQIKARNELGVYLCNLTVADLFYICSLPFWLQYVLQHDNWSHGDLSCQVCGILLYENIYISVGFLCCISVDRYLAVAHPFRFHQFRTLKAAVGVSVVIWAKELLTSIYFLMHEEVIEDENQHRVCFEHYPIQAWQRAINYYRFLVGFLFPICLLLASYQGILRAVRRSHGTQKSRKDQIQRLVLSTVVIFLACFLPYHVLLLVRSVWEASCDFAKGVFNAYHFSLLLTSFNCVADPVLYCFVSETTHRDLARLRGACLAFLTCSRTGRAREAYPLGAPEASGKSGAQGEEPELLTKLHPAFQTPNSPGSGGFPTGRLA
Method: Peptide-dependent Ca^2+ mobilization responses were measured in HEK293 stable cell lines (HA-OGR1 (GPR68) and vector pcDNA) ([Saxena et al., 2012]) that were seeded in 96-well plates (1 × 10^5 cells/well) and cultured at 37°C with 5% CO2 to near confluence in DMEM with 10% FBS (Corning). Six hours prior to assay, medium was changed to pH 8.0 or pH 7.4 HAM’s F12 Nutrient Mixture (GIBCO) without FBS and transferred to a 37°C incubator without CO2. One hour prior to stimulation, cells were incubated in pH 8.0 or pH 7.4 HBSS with Ca^2+ and Mg^2+ (GIBCO), supplemented with 15 mM HEPES, 2 μM Fluo-4 AM (Invitrogen) and 1.5 mM probenecid ([…] to prevent Fluo-4 efflux) as described previously ([Pera et al., 2018]). Indicated peptides were pipetted using an automated system and emission signal was recorded at 525 nm after excitation at 485 nm using Flex Station III (Molecular Devices). Ca^2+ mobilization responses were determined by subtracting basal fluorescence from the net peak of agonist-induced fluorescence. Ionomycin (1 μM) was used to calculate the maximum Ca^2+ signal to normalize peptide-mediated responses.

GPR68 [2] = molecular target: T1, GPR68; experiment: Dynamic mass redistribution (DMR), concentration-response; type: cell-based; set-up: hIL-2Ra signal peptide (N); expressed in transfected cells; details: GPR68; dynamic mass redistribution, concentration-response; mean, SEM and n (3-4)
Procedure, shortened: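 Doxycycline-induced (0.1 μg/ml) SNAP-tagged receptors in TREx 293 cells, equilibrated 90 min at 22°C in HEPES-buffered HBSS, pH 7.4, with 0.1% DMSO. Peptide-evoked optical wavelength shift recorded for 60 min at 22°C, buffer/solvent corrected and quantified as area under the curve. Mean ± SEM of at least 3 independent experiments.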
Target sequence in this assay (Q15743 2-365 limits assumed): as the sequence (Q15743 2-365 limits assumed) above

GPR68 [3] = molecular target: T1, GPR68; experiment: GloSensor cAMP assay (Gs), allosteric operational model fitting; type: cell-based; set-up: expressed in transfected cells; host or cells: HEK293T, transient (PEI), co-transfected with GloSensor cAMP plasmid; details: GPR68; GloSensor cAMP; mean, SEM and n (4)
Method: GPR68-mediated cAMP signaling was measured using GloSensor cAMP assays as published previously ([Huang et al., 2015], [Yu et al., 2019]) with modifications as indicated below. Calcium- and magnesium-free HBSS was supplemented with different organic buffer reagents for different pH solutions, 20 mM 2-(N-morpholino)ethanesulfonic acid (MES, Alfa Aesar) for pH 6.00 – 6.70, 20 mM 4-(2-hydroxyethyl)-1-piperazineethanesulfonic acid (HEPES, Fisher) for pH 6.80 – 8.20, and 20 mM (tris(hydroxymethyl)methylamino)propanesulfonic acid (TAPS) for pH 8.30 – 8.60. The phosphodiesterase (PDE) inhibitor Ro 20-1724 (10 μM final, Cayman Chemical) was included in pH buffers to eliminate potential effect of PDE […]. HEK293T cells were transfected with a modified polyethylenimine (PEI, Polysciences) transfection method ([Longo et al., 2013]). For a 15-cm dish of HEK293T cells with 25 mL growth medium, 8 μg receptor DNA and 8 μg GloSensor DNA (Promega) were mixed in 1 mL of Opti-MEM medium followed by addition of 80 μL PEI reagents. The mixture was added to cells after 20 min incubation at room temperature. Overnight transfected cells were plated in poly-L-lysine (Sigma) coated 384-well white clear bottom plates (Greiner Bio-One, #781098) using DMEM (Corning) + 1% dialyzed FBS (Omega Scientific) for at least 6 h (up to 24 h). Cells were removed of medium before receiving 20 μL/well of 3.5 mM luciferin (Goldbio) prepared in assay buffer (HBSS, 20 mM TAPS, pH 8.40, 10 μM Ro 20-1724) for 1 h at 37°C. Luciferin loading solutions were removed and premixed drug solutions at desired pH conditions were added to cells (25 μL/well). Luminescence was measured 25-30 min after drug application. Results were normalized (basal and maximum responses in the absence of modulator were set to be 0 and 100%) and pooled for analysis using GraphPad Prism.
All of the other parameters, including allosteric affinity cooperativity (α), allosteric modulator binding affinity KB, orthosteric agonist (protons) efficacy τA, system maximal response, and slope factor n were all globally shared for all datasets for each modulator. […] We therefore used an allosteric index, log(αβ/KB) ([Kenakin, 2017a]), which contains both allosteric binding affinity and cooperativity, to quantify the overall allosteric activity.
Target sequence in this assay (Q15743 whole entry): as the sequence (Q15743 whole entry) above

MAS1 = molecular target: T3, MAS1 (Homo sapiens, UniProt P04201); experiment: β-arrestin recruitment (Tango), indicative pairing; type: cell-based; details: mean, n = 3
T3 construct: host or cells: HTLA cells (HEK293-derived)
T3 sequence (P04201 1-325): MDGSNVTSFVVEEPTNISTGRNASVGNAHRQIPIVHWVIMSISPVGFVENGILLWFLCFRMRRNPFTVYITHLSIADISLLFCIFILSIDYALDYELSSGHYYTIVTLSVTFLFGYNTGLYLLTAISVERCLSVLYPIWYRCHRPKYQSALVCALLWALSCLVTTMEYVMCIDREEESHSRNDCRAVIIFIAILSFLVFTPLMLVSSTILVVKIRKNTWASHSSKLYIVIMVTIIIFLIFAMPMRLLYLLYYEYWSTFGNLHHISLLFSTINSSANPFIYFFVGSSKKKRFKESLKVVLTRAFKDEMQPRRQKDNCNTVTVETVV
Method: (§1) The peptide library was additionally screened against 120 GPCR targets in parallel, including all available orphan receptors and 27 known class A peptide receptors using the Tango assay platform ([Kroeze et al., 2015]). Briefly, HTLA cells (a HEK293 cell line stably expressing a tTA-dependent luciferase reporter and a β-arrestin2-TEV fusion gene) were plated 10,000 cells/well in poly-L-lysine–coated clear-bottom white 384-well plates in DMEM supplemented with 10% FBS, 100 U/ml penicillin and 100 μg/ml streptomycin, 2 μg/ml puromycin and 100 μg/ml hygromycin B. 24 hr later, cells were transfected with Tango GPCR constructs using the calcium phosphate method ([Jordan et al., 1996]). The next day, culture medium was changed to DMEM + 1% dFBS and 10 μM peptides were added for overnight stimulation. Bright-Glo solution (Promega) was incubated for 15–20 min at room temperature, and luminescence was counted using a Trilux luminescence counter (Wallac).
For subsequent peptide validation experiments using Tango assays, HTLA cells were transiently transfected in 10 cm dishes with the receptor of interest using polyethylenimine (PEI) ([Longo et al., 2013]). After 24 hr, 25,000 cells/well were plated in clear bottom, white-walled 384-well plates. Assays were performed as described above, with luminescence measured using an EnSpire 2300 Multimode plate reader (PerkinElmer). Luminescence counts were exported into Excel and were analyzed using GraphPad Prism 7.

MRGPRX2 = molecular target: T4, MRGPRX2 (Homo sapiens, UniProt Q96LB1); experiment: β-arrestin recruitment (Tango), known peptide receptors; type: cell-based; details: mean, n = 3
T4 construct: host or cells: HTLA cells (HEK293-derived)
T4 sequence (Q96LB1 1-330): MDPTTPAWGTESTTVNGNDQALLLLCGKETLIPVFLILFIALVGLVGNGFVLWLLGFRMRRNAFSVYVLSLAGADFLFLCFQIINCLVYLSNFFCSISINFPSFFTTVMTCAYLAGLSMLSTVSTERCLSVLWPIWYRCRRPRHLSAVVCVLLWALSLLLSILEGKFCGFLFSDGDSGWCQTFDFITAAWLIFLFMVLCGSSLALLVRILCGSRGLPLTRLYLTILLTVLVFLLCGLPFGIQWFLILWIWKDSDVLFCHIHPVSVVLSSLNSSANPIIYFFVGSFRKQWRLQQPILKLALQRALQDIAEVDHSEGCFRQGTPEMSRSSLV

[4] = system: 120 GPCR targets, including all available orphan receptors and 27 known class A peptide receptors; experiment: Peptide library screen, β-arrestin recruitment (Tango, fold change, 10 μM); type: cell-based, human; details: for Active at: (activity in b-arrestin recruitment assays): Tango, receptor(s) at which the known library peptide was active, among its known GPCR target(s), validated pairings; for Confirmation of known target in Tango: repeat hitters of the peptide library screen, the value names the known receptor(s) confirmed in the β-arrestin recruitment (Tango) screen
Method: as §1

Molecule	Internalization assays Emax (AUC) (GPR68 [1])	DMR assays Emax (peak or AUC) (GPR68 [2])	pEC50, Tango (fold over basal) (MAS1)	Active at: (activity in b-arrestin recruitment assays) [4]	Confirmation of known target in Tango [4]	also measured
CC[C@H](C)[C@H](NC(=O)[C@H](CCCNC(=N)N)NC(=O)[C@H](C)NC(=O)CNC(=O)[C@H](CCCCN)NC(=O)[C@H](CCCNC(=N)N)NC(=O)[C@@H](NC(=O)[C@H](C)NC(=O)[C@@H]1CSSC[C@H](NC(=O)[C@H](CCSC)NC(=O)[C@@H]2CCCN2C(=O)[C@@H](NC(=O)[C@H](CCC(N)=O)NC(=O)CNC(=O)[C@@H](N)Cc2ccc(O)cc2)C(C)C)C(=O)N[C@@H](CC(=O)O)C(=O)N[C@@H](C)C(=O)NCC(=O)N[C@@H](CCC(=O)O)C(=O)N[C@@H](CCC(N)=O)C(=O)N1)C(C)C)C(N)=O [139 original] (H-YGQVPMCDAGEQCAVRKGARI-NH2; disulfide 7-13; N-terminus assumed)	9.4	944453				Emax (HA-OGR1 (GPR68); read-out: Calcium mobilization assays Emax (% ionomycin)): 73.1%; EC50 (HA-OGR1 (GPR68); read-out: Calcium mobilization assays pEC50 (converted)): 7.08 µM
CC[C@H](C)[C@H](NC(=O)[C@H](CCCNC(=N)N)NC(=O)[C@H](C)NC(=O)CNC(=O)[C@H](CCCCN)NC(=O)[C@H](CCCNC(=N)N)NC(=O)[C@@H](NC(=O)[C@H](C)NC(=O)[C@@H]1CSSC[C@H](NC(=O)[C@H](CCSC)NC(=O)[C@@H]2CCCN2C(=O)[C@@H](NC(=O)[C@H](CCC(N)=O)NC(=O)CNC(=O)[C@@H](N)Cc2ccc(O)cc2)C(C)C)C(=O)N[C@@H](CC(=O)O)C(=O)N[C@@H](C)C(=O)NCC(=O)N[C@@H](CCC(=O)O)C(=O)N[C@@H](CCC(N)=O)C(=O)N1)C(C)C)C(N)=O [139 resynthesized] (H-YGQVPMCDAGEQCAVRKGARI-NH2; disulfide 7-13; N-terminus and C-terminus assumed)	13.6	749669				GloSensor cAMP assays Emax (fold change) (GPR68 [3]): 25.2 fold change
AGCKNFFWKTFTSC (disulfide) [Peptide 103]			4.33	SST2	SST2	Emax, Tango (fold over basal) (MRGPRX2): 6.6 fold over basal; pEC50, Tango (fold over basal) (MRGPRX2): 4.98
DRMPCRNFFWKTFSSCK (disulfide) [Peptide 121]			4.96		SST2	
KPLRKDENGTSVAEYPMSASQSNKGVDVNNAVV [Peptide 193]			9.32			Emax, Tango (fold over basal) (MAS1): 1.3 fold over basal
YGGFLRRIRPKLKWDNQ [Peptide 119]			5.04	kappa	kappa, mu	
